According to US9498483B2, “2,3,5-trisubstituted thiophene compounds and uses thereof” (priority 2010, dated 2016):

Columns and labels:
[1] = system: HCV replicon I389luc-ubi-neo/NS3-3′/ET in ET (Huh-lucubineo-ET) cells; assay: Replicon assay (Biological Example 2), luciferase readout; type: cell-based; conditions: Hepatitis C virus
Outline: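 EC50 values come from Hill fits of % inhibition of replicon-driven firefly luciferase, relative to no-compound wells. Compounds were serially diluted (10 points, 3-fold, 0.1 nM–50 μM final, 0.5% DMSO) onto ET replicon cells and read after 48 h.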

[2] = target: T1, HCV polymerase (Hepatitis C virus genotype 1b, UniProt Q9WMX2); assay: Polymerase assay of Biological Example 1 (IC50 values of Table 3); type: biochemical; conditions: IC50 values of Table 3, polymerase assay of Biological Example 1; read-out: NS5B-enzyme3
T1 construct: (His)6 (C); made in house; host or cells: XL-1 cells (E. coli, by own knowledge)

[3] = ET cells, luciferase activity 48 hours after compound

SMILES	IC50 ([1]; between 100 nM and 5.0 uM) [nM]	IC50 [2] [nM]	IC50 [1, 3] [nM]
O=C(O)c1sc(-c2ccccc2)cc1N1C(=O)CN(S(=O)(=O)c2cccc(-c3ccccc3)c2)CC1C1CCCCC1 (stereo not drawn) [Compound 65, 3-[4-(Biphenyl-3-sulfonyl)-2-cyclohexyl-6-oxo-piperazin-1-yl]-5-phenyl-thiophene-2-carboxylic acid]	100 to 5000	45	
O=C(O)c1sc(-c2ccccc2)cc1N1C(=O)CN(S(=O)(=O)c2cccnc2)CC1C1CCCCC1 (stereo not drawn) [Compound 108, 3-[2-Cyclohexyl-6-oxo-4-(pyridine-3-sulfonyl)-piperazin-1-yl]-5-phenyl-thiophene-2-carboxylic acid]	100 to 5000	37	
COc1ccncc1-c1ccc(S(=O)(=O)N2CC(=O)N(c3cc(-c4ccccc4)sc3C(=O)O)[C@H](C3CCCCC3)C2)cn1 [Compound 204, 3-[(R)-2-Cyclohexyl-4-(4′-methoxy-[2,3′]bipyridinyl-5-sulfonyl)-6-oxo-piperazin-1-yl]-5-phenyl-thiophene-2-carboxylic acid]	100 to 5000	2	
CC(C)(C)C#Cc1cc(N2C(=O)CCC[C@@H]2C2CCCCC2)c(C(=O)O)s1 [Compound 34, 3-((R)-2-Cyclohexyl-6-oxo-piperidin-1-yl)-5-(3,3-dimethyl-but-1-ynyl)-thiophene-2-carboxylic acid]		1050	≥ 5000
COc1ccc(S(=O)(=O)N2CC(=O)N(c3cc(C#CC(C)(C)C)sc3C(=O)O)[C@H](C3CCCCC3)C2)cn1 [Compound 191, 3-[(R)-2-Cyclohexyl-4-(6-methoxy-pyridine-3-sulfonyl)-6-oxo-piperazin-1-yl]-5-(3,3-dimethyl-but-1-ynyl)-thiophene-2-carboxylic acid]		1	≤ 100
CC(C)(C)C#Cc1cc(N2C(=O)CN(S(=O)(=O)c3cccnc3)C[C@H]2C2CCCCC2)c(C(=O)O)s1 [Compound 192, 3-[(R)-2-Cyclohexyl-6-oxo-4-(pyridine-3-sulfonyl)-piperazin-1-yl]-5-(3,3-dimethyl-but-1-ynyl)-thiophene-2-carboxylic acid]		3	≤ 100
Cc1ccccc1S(=O)(=O)N1CC(=O)N(c2cc(-c3ccccc3)sc2C(=O)O)C(C2CCCCC2)C1 (stereo not drawn) [Compound 58, 3-[2-Cyclohexyl-6-oxo-4-(toluene-2-sulfonyl)-piperazin-1-yl]-5-phenyl-thiophene-2-carboxylic acid]	100 to 5000	88	
O=C(O)c1sc(-c2ccccc2)cc1N1C(=O)CN(S(=O)(=O)c2ccc(-n3cccn3)cc2)CC1C1CCCCC1 (stereo not drawn) [Compound 101, 3-[2-Cyclohexyl-6-oxo-4-(4-pyrazol-1-yl-benzenesulfonyl)-piperazin-1-yl]-5-phenyl-thiophene-2-carboxylic acid]	100 to 5000	11	
CC(C)(C)C#Cc1cc(N2C(=O)CN(S(=O)(=O)c3c(Cl)cccc3Cl)C[C@H]2C2CCCCC2)c(C(=O)O)s1 [Compound 282, 3-[(R)-2-Cyclohexyl-4-(2,6-dichloro-benzenesulfonyl)-6-oxo-piperazin-1-yl]-5-(3,3-dimethyl-but-1-ynyl)-thiophene-2-carboxylic acid]	100 to 5000	31	
CCc1ccc(S(=O)(=O)N2CC(=O)N(c3cc(-c4ccc(C)cc4)sc3C(=O)O)[C@H](C3CCCCC3)C2)cn1 [Compound 304, 3-[(R)-2-Cyclohexyl-4-(6-ethyl-pyridine-3-sulfonyl)-6-oxo-piperazin-1-yl]-5-p-tolyl-thiophene-2-carboxylic acid]		5	≤ 100
CC(C)(C)C#Cc1cc(N2C(=O)CN(S(=O)(=O)c3cccc(Cl)c3)C[C@H]2C2CCCCC2)c(C(=O)O)s1 [Compound 242, 3-[(R)-4-(3-Chlorobenzenesulfonyl)-2-cyclohexyl-6-oxo-piperazin-1-yl]-5-(3,3-dimethyl-but-1-ynyl)-thiophene-2-carboxylic acid]	100 to 5000	5	
O=C(O)c1sc(-c2ccccc2)cc1N1C(=O)CN(S(=O)(=O)c2ccc(N3CCC3)nc2)CC1C1CCCCC1 (stereo not drawn) [Compound 74, 3-[4-(6-Azetidin-1-yl-pyridine-3-sulfonyl)-2-cyclohexyl-6-oxo-piperazin-1-yl]-5-phenyl-thiophene-2-carboxylic acid]		12	≤ 100
CC(C)(C)C#Cc1cc(N2C(=O)[C@@](C)(CC(O)CO)OC[C@H]2C2CCCCC2)c(C(=O)O)s1 (stereo partly drawn) [Compound 330, 3-[(2R,5R)-5-Cyclohexyl-2-(2,3-dihydroxy-propyl)-2-methyl-3-oxo-morpholin-4-yl]-5-(3,3-dimethyl-but-1-ynyl)-thiophene-2-carboxylic acid]		3	≤ 100
CCc1ccc(-c2cc(N3C(=O)CCCC3C3CCCCC3)c(C(=O)O)s2)cc1 (stereo not drawn) [Compound 72, 3-(2-Cyclohexyl-6-oxo-piperidin-1-yl)-5-(4-ethyl-phenyl)-thiophene-2-carboxylic acid]	100 to 5000	64	
O=C(O)c1sc(-c2ccccc2)cc1N1C(=O)CN(S(=O)(=O)c2ccc(NCCO)nc2)CC1C1CCCCC1 (stereo not drawn) [Compound 86, 3-{2-Cyclohexyl-4-[6-(2-hydroxy-ethylamino)-pyridine-3-sulfonyl]-6-oxo-piperazin-1-yl}-5-phenyl-thiophene-2-carboxylic acid]		6	≤ 100
Cc1nc(C)c(S(=O)(=O)N2CC(=O)N(c3cc(C#CC(C)(C)C)sc3C(=O)O)[C@H](C3CCCCC3)C2)s1 [Compound 244, 3-[(R)-2-Cyclohexyl-4-(2,4-dimethyl-thiazole-5-sulfonyl)-6-oxo-piperazin-1-yl]-5-(3,3-dimethyl-but-1-ynyl)-thiophene-2-carboxylic acid]		2	≤ 100
CC(C)(C)C#Cc1cc(N2C(=O)[C@@](C)(CCC(C)(C)O)OC[C@H]2C2CCCCC2)c(C(=O)O)s1 [Compound 319, 3-[(2R,5R)-5-Cyclohexyl-2-(3-hydroxy-3-methyl-butyl)-2-methyl-3-oxo-morpholin-4-yl]-5-(3,3-dimethyl-but-1-ynyl)-thiophene-2-carboxylic acid]		4	≤ 100
CC(C)S(=O)(=O)N1CC(=O)N(c2cc(C#CC(C)(C)C)sc2C(=O)O)[C@H](C2CCCCC2)C1 [Compound 221, 3-[(R)-2-Cyclohexyl-6-oxo-4-(propane-2-sulfonyl)-piperazin-1-yl]-5-(3,3-dimethyl-but-1-ynyl)-thiophene-2-carboxylic acid]	100 to 5000	19	
Cc1ccc(-c2cc(N3C(=O)C(O)CCC3C3CCCCC3)c(C(=O)O)s2)cc1 (stereo not drawn) [Compound 317, 3-(6-Cyclohexyl-3-hydroxy-2-oxo-piperidin-1-yl)-5-p-tolyl-thiophene-2-carboxylic acid]	100 to 5000	24.1	
O=C(O)c1sc(-c2ccccc2)cc1N1C(=O)CN(S(=O)(=O)c2ccc(N3CCCC3)nc2)C[C@@H]1C1CCCCC1 [Compound 136, 3-[(S)-2-Cyclohexyl-6-oxo-4-(6-pyrrolidin-1-yl-pyridine-3-sulfonyl)-piperazin-1-yl]-5-phenyl-thiophene-2-carboxylic acid]	100 to 5000	260	
CC(C)(C)OC(=O)N[C@H]1CCCN(c2ccc(S(=O)(=O)N3CC(=O)N(c4cc(-c5ccccc5)sc4C(=O)O)[C@H](C4CCCCC4)C3)cn2)C1 [Compound 159, 3-[(R)-4-((S)-3-tert-Butoxycarbonyl-amino-3,4,5,6-tetrahydro-2H-[1,2′]bipyridinyl-5′-sulfonyl)-2-cyclohexyl-6-oxo-piperazin-1-yl]-5-phenyl-thiophene-2-carboxylic acid]	100 to 5000	3	
C[C@@H]1CCCN1c1ncc(S(=O)(=O)N2CC(=O)N(c3cc(-c4ccccc4)sc3C(=O)O)[C@H](C3CCCCC3)C2)cc1Cl [Compound 170, 3-{(R)-4-[5-Chloro-6-((R)-2-methyl-pyrrolidin-1-yl)-pyridine-3-sulfonyl]-2-cyclohexyl-6-oxo-piperazin-1-yl}-5-phenyl-thiophene-2-carboxylic acid]		4	≤ 100
COc1ccc(S(=O)(=O)N2CC(=O)N(c3cc(-c4ccccc4)sc3C(=O)O)C(C3CCCCC3)C2)cc1OC (stereo not drawn) [Compound 102, 3-[2-Cyclohexyl-4-(3,4-dimethoxy-benzenesulfonyl)-6-oxo-piperazin-1-yl]-5-phenyl-thiophene-2-carboxylic acid]	100 to 5000	4.5	
O=C(O)c1sc(-c2ccccc2)cc1N1C(=O)CN(S(=O)(=O)c2ccc(F)cc2)CC1C1CCCCC1 (stereo not drawn) [Compound 109, 3-[2-Cyclohexyl-4-(4-fluoro-benzenesulfonyl)-6-oxo-piperazin-1-yl]-5-phenyl-thiophene-2-carboxylic acid]	100 to 5000	30	
C[C@@H](O)CC[C@@]1(C)OC[C@@H](C2CCCCC2)N(c2cc(C#CC(C)(C)C)sc2C(=O)O)C1=O [Compound 321, 3-[(2R,5R)-5-Cyclohexyl-2-((R)-3-hydroxy-butyl)-2-methyl-3-oxo-morpholin-4-yl]-5-(3,3-dimethyl-but-1-ynyl)-thiophene-2-carboxylic acid]		2	≤ 100
O=C(O)c1sc(-c2ccccc2)cc1N1C(=O)CN(S(=O)(=O)c2ccc(-c3ccccc3)cc2)CC1C1CCCCC1 (stereo not drawn) [Compound 60, 3-[4-(Biphenyl-4-sulfonyl)-2-cyclohexyl-6-oxo-piperazin-1-yl]-5-phenyl-thiophene-2-carboxylic acid]	100 to 5000	9	
CC(C)(C)C#Cc1cc(N2C(=O)CN(S(=O)(=O)C3CC3)C[C@H]2C2CCCCC2)c(C(=O)O)s1 [Compound 245, 3-((R)-2-Cyclohexyl-4-cyclopropanesulfonyl-6-oxo-piperazin-1-yl)-5-(3,3-dimethyl-but-1-ynyl)-thiophene-2-carboxylic acid]	100 to 5000	5	
